Results: EPA's ToxValDB 9.5 (doi:10.2903/j.efsa.2007.106r)
Values after ≈ are worked out from the molar mass of the structure shown. Values joined by “and” are separate entries in the source; they are usually repeats but may differ in a detail not shown here. Identical values can stand only once.

Legend:
Colinus virginianus = settings: for NOEL / NOEC: reproduction developmental
Anas platyrhynchos = settings: for NOEL / NOEC: reproductive
Rattus norvegicus = settings: for LD50: acute, oral, mortality
Canidae = settings: chronic; duration: 1 years; Dog Other; clinical chemistry
Folsomia candida = settings: chronic/long-term
Bibionidae = settings: chronic/long-term
Mus musculus = settings: acute, oral, mortality
Apis mellifera = settings: acute, mortality
Daphnia magna = settings: chronic/long-term
Typhlodromus pyri = assay: LR50; higher = less toxic; settings: not reported; mortality
Aphidius rhopalosiphi = assay: LR50; higher = less toxic; settings: chronic/long-term; mortality
[1] = acute, duration: 5 days, oral, diet, mortality

For `OC(Cc1ccccc1Cl)(Cn1cncn1)C1(Cl)CC1` (stereo not drawn), the LD50 (Colinus virginianus; acute, oral, diet, mortality) was > 297 mg/kg-day, the LD50 (Colinus virginianus; acute, oral, mortality) was > 2000 mg/kg and the NOEL (Colinus virginianus; duration: 20 weeks, oral, diet) was 14.8 mg/kg-day. It also gave an NOEL (Anas platyrhynchos; duration: 20 weeks, oral, feed) of 63 mg/kg-day, an NOAEL (Rattus norvegicus; chronic, organ weight) of 1.1 mg/kg-day and an NOAEL (Rattus norvegicus; developmental, development) of 1 mg/kg-day.
With `OC(Cc1ccccc1Cl)(Cn1[nH]cnc1=S)C1(Cl)CC1` (stereo not drawn) [Prothioconazole] the LC50 (Colinus virginianus; [1]) was > 5000 mg/kg and 4090 mg/kg, the LD50 (Colinus virginianus; [1]) was > 1410 mg/kg-day and the LD50 (Colinus virginianus; acute, oral, mortality) was > 2000 mg/kg. The NOEC (Colinus virginianus; duration: 20 weeks) was 173 mg/kg-day, the NOEL (Colinus virginianus; duration: 20 weeks) was 14.8 mg/kg-day and the NOEC (Colinus virginianus; duration: 22 weeks) was ≥ 1000 mg/kg-day. For the same compound, the NOEL (Colinus virginianus; duration: 22 weeks) was ≥ 86 mg/kg-day, the NOAEL (Canidae) was 5 mg/kg-day and the NOEC (Anas platyrhynchos; duration: 20 weeks) was ≥ 500 mg/kg. For the same compound, the NOEL (Anas platyrhynchos; duration: 20 weeks) was 63 mg/kg-day, the NOEC (Anas platyrhynchos; duration: 21 weeks) was 700 mg/kg and the NOEL (Anas platyrhynchos; duration: 21 weeks) was 78 mg/kg-day. For the same compound, the LD50 (Anas platyrhynchos; short-term, duration: 5 days, oral, feed, mortality) was > 2460 mg/kg-day, the LC50 (Anas platyrhynchos; short-term, duration: 5 days, oral, feed, reproduction) was > 5000 mg/kg and the LC50 (Tagia sp.; acute, mortality) was > 1000 mg/kg. It also gave an NOEC (Tagia sp.; chronic/long-term) of 1.33 mg/kg, an NOEC (Folsomia candida) of 64 mg/kg and an NOEC (Bibionidae) of 9.14 mg/L. For the same compound, the LD50 (Mus musculus; F) was 3460 mg/kg, the LD50 (Mus musculus; M) was 2240 mg/kg-day and the LD50 (Rattus norvegicus; F) was 2510 mg/kg-day. The LD50 (Rattus norvegicus; M/F) was > 6200 mg/kg-day, the LD50 (Rattus norvegicus; M) was 2810 mg/kg-day and the NOAEL (Rattus norvegicus; chronic, duration: 2 years, organ weight) was 5 mg/kg-day. For the same compound, the NOAEL (Rattus norvegicus; developmental, development) was 20 mg/kg-day, the LD50 (Apis mellifera; dermal) was > 200 µg/piece and the LD50 (Apis mellifera; oral, unspecified) was > 71 µg/piece. The NOEC (Daphnia magna) was 0.56 mg/L, the LC50 (Oncorhynchus mykiss; acute, mortality) was 1.83 µg/mL (≈ 5.32 µM) and the NOEC (Oncorhynchus mykiss; chronic/long-term, other) was 0.308 mg/L. The LR50 (Typhlodromus pyri) was 18.7 g/ha and the LR50 (Aphidius rhopalosiphi) was 140 g/ha.
